What is called IC50 is the concentration needed to halve the response being measured.

Chain of hROMK (hKir1.1) (P48048 whole entry): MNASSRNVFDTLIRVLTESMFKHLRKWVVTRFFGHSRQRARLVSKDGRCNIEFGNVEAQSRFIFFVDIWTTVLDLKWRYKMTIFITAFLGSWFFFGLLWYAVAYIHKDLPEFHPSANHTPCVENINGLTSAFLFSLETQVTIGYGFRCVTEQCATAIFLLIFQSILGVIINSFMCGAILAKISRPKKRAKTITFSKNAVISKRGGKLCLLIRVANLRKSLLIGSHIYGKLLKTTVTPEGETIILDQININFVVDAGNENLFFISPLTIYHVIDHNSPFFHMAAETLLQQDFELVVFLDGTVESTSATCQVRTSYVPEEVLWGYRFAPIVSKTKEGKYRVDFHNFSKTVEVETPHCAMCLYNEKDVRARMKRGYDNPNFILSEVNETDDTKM

The target of the test is hROMK (hKir1.1) (Homo sapiens (Human), UniProt P48048). In words: Thallium Flux Assay (ROMK channel functional thallium flux, FLIPR-Tetra). The test is classed as cell-based. The settings on record: HEK293 cells stably expressing hROMK (hKir1.1); unit not given in Table 4 (IC50 potencies less than 1 μM); read-out: ROMK TI IC50. As for the experimental part:
Cell Culture Conditions—HEK293 cells stably expressing hROMK (hKir1.1) were grown at 37° C. in a 10% CO2 humidified incubator in complete growth media: Dulbecco's Modified Eagle Medium supplemented with non-essential amino acids, Penicillin/Streptomycin/Glutamine, G418 and FBS. At >80% confluency, the media was aspirated from the flask and rinsed with 10 mL calcium/magnesium-free PBS. […] To dislodge the cell, the side of the flask was gently banged with one's hand. The cells completely titrated and then the cells were transferred to 25 mL complete media, centrifuged at 1,500 rpm for 6 min followed by resuspension in complete growth media and determine cell concentration. […] Under ideal growth conditions and appropriate tissue culture practices, this cell line is stable for 40-45 passages.
FluxOR Kit Components (Invitrogen F10017)
• FluxOR™ Reagent (Component A) • FluxOR™ Assay Buffer (Component B)—10× Concentrate • PowerLoad™ Concentrate (Component C)—100× Concentrate • Probenecid (Component D)—Lyophilized sample is kept at −20° C. Water soluble, 100× after solubilization in 1 mL water. […] Store at 4° C. • Thallium sulfate (Tl2SO4) Concentrate (Component G)—50 mM in water. […] Can be stored at room temperature • Stimulant Buffer (prepared at 5× final concentration in 1× FluxOR™Chloride-Free Buffer): 7.5 mM thallium sulfate and 0.75 mM potassium sulfate (to give a final assay concentration of 3 mM Thallium/0.3 mM potassium). Store at 4° C. when not in use. If kept sterile, this solution is good for months.
• 1. Seed HEK-hKir1.1 cells (50 μl at 20,000 cells/well) in 384-well PDL coated Microplates • 2. Allow cells to adhere overnight in humidified 37° C./10% CO2 incubator • 3. Completely remove cell growth media from microplate and replace with 25 μl loading buffer • 4. Incubate Microplate at room temperature, protected form light, for 90 min • 5. Remove loading buffer and replace with 25 μl 1× Assay Buffer±test compound. • 6. Incubate microplate at room temperature, protected from light, for 30 min • 7. […] Excitation=400 nm, Emission=460 & 580 nm. Collect data for ˜10 min.
Data Calculation—The fluorescence intensity of wells containing 3 μM of a standard control ROMK inhibitor of the present invention was used to define the ROMK-sensitive component of thallium flux. Fluorescence in the presence of test compounds was normalized to control values to provide % fluorescence change.
As to `N#Cc1ccc(N2CCC3(CCN(CC4OCCc5c4ccc4c5COC4=O)CC3)C2)nc1` (centres unmarked) [Example 27, 6-(8-((3-oxo-3,6,8,9-tetrahydro-1H-furo[3,4-f]isochromen-6-yl)methyl)-2,8-diazaspiro[4.5]decan-2-yl)nicotinonitrile], the IC50 worked out at 103 nM.

As for `Cc1c([C@@H](O)CN2C3CCC2CC2(CC(=O)N(c4ccc(C#N)cn4)C2)C3)ccc2c1COC2=O` (stereo partly drawn) [Example 29, 6-(8-((R)-2-Hydroxy-2-(4-methyl-1-oxo-1,3-dihydroisobenzofuran-5-yl)ethyl)-5′-oxo-8-azaspiro[bicyclo[3.2.1]octane-3,3′-pyrrolidin]-1′-yl)nicotinonitrile], the IC50 was 198 nM.

With `CCS(=O)(=O)c1ccc(N2CCC3(CCN(C[C@H](O)c4ccc5c(c4C)COC5=O)CC3)C2)cn1` [Example 30, (R)-5-(2-(2-(6-(Ethylsulfonyl)pyridin-3-yl)-2,8-diazaspiro[4.5]decan-8-yl)-1-hydroxyethyl)-4-methylisobenzofuran-1(3H)-one], the 50% inhibitory concentration (IC50) came out at 271 nM.

For `Cc1c([C@@H](O)CN2CCC3(CC2)CCN(c2ccc(S(C)(=O)=O)cc2)C3)ccc2c1COC2=O` [Example 31, (R)-5-(1-Hydroxy-2-(2-(4-(methylsulfonyl)phenyl)-2,8-diazaspiro[4.5]decan-8-yl)ethyl)-4-methylisobenzofuran-1(3H)-one], the IC50 was found to be 41.3 nM.

Regarding `Cc1c([C@@H](O)CN2CCC3(CC2)CCN(c2ccc(S(C)(=O)=O)nn2)C3)ccc2c1COC2=O` [Example 32, (R)-5-(1-Hydroxy-2-(2-(6-(methylsulfonyl)pyridazin-3-yl)-2,8-diazaspiro[4.5]decan-8-yl)ethyl)-4-methylisobenzofuran-1(3H)-one], the half-inhibitory concentration (IC50) came out at 177 nM.

Turning to `Cc1c([C@@H](O)CN2CCC3(CC2)CCN(c2cnc(S(C)(=O)=O)cn2)C3)ccc2c1COC2=O` [Example 33, (R)-5-(1-Hydroxy-2-(2-(5-(methylsulfonyl)pyrazin-2-yl)-2,8-diazaspiro[4.5]decan-8-yl)ethyl)-4-methylisobenzofuran-1(3H)-one], the IC50 was 44.1 nM.

In the case of `Cc1c([C@@H](O)CN2CCC3(CC2)CC(=O)N(c2ccc(S(C)(=O)=O)cn2)C3)ccc2c1COC2=O` [Example 34, (R)-8-(2-Hydroxy-2-(4-methyl-1-oxo-1,3-dihydroisobenzofuran-5-yl)ethyl)-2-(5-(methylsulfonyl)pyridin-2-yl)-2,8-diazaspiro[4.5]decan-3-one], the IC50 stood at 53.4 nM.

Regarding `Cc1c([C@@H](O)CN2CCC3(CC2)CC(=O)N(c2cnc(S(C)(=O)=O)cn2)C3)ccc2c1COC2=O` [Example 35, (R)-8-(2Hydroxy-2-(4-methyl-1-oxo-1,3-dihydroisobenzofuran-5-yl)ethyl)-2-(5-(methylsulfonyl)pyrazin-2-yl)-2,8-diazaspiro[4.5]decan-3-one], the IC50 came to 74.2 nM.

Turning to `Cc1nc(N2CCC3(CCN(C[C@H](O)c4ccc5c(c4C)COC5=O)CC3)C2)ccc1S(C)(=O)=O` [Example 36, (R)-5-(1-Hydroxy-2-(2-(6-methyl-5-(methylsulfonyl)pyridin-2-yl)-2,8-diazaspiro[4.5]decan-8-yl)ethyl)-4-methylisobenzofuran-1(3H)-one], the IC50 came to 75.7 nM.

With `Cc1c([C@@H](O)CN2CCC3(CC2)CC(=O)N(c2ncc(S(C)(=O)=O)s2)C3)ccc2c1COC2=O` [Example 37, (R)-8-(2-Hydroxy-2-(4-methyl-1-oxo-1,3-dihydroisobenzofuran-5-yl)ethyl)-2-(5-(methylsulfonyl)thiazol-2-yl)-2,8-diazaspiro[4.5]decan-3-one], the IC50 turned out to be 87.5 nM.

On to `Cc1c([C@@H](O)CN2CCC3(CC2)CCN(c2ncc(S(C)(=O)=O)s2)C3)ccc2c1COC2=O` [Example 38, (R)-5-(1-Hydroxy-2-(2-(5-(methylsulfonyl)thiazol-2-yl)-2,8-diazaspiro[4.5]decan-8-yl)ethyl)-4-methylisobenzofuran-1(3H)-one], for which the IC50 came to 60 nM.

The values are drawn from patent US9751881B2, “Inhibitors of the renal outer medullary potassium channel” (Merck Sharp & Dohme Corp., priority 2013, dated 2017).
